According to paper PMC2912373, “Low-Density Lipoprotein Receptor-Related Protein 1 (LRP1) Mediates Neuronal Aβ42 Uptake and Lysosomal Trafficking” (PLoS ONE, 2010):

Columns and labels:
N2a-mLRP4 cells = experiment: Steady-state FAM-Aβ42 accumulation (continuous feeding), FACS; assay type: cell-based, mouse; details: for levels of FAM-Aβ42 in N2a-mLRP4 cells compared to N2a-pcDNA3 cells: 500 nM FAM-Aβ42, 37°C, n = 3
Description: To determine whether internalized Aβ42 is accumulated over time, we performed continuous feeding experiments of FAM-Aβ42 in N2a-pcDNA3 and N2a-mLRP4 cells. The steady-state levels and localization of Aβ42 were determined by flow cytometry and confocal microscopy, respectively (Fig. 2). Cells were incubated with 500 nM FAM-Aβ42 at 37°C for 24, 48 or 72 h and the content of fluorescence per cell was quantified by FACS and presented as a percentage of the levels in N2a-pcDNA3 at each time point (Fig. 2A). […] Therefore, we analyzed the subcellular localization of internalized FAM-Aβ42 by confocal microscopy in N2a cells treated as before and analyzed co-localization with lysosomes. For the visualization of acidic organelles, a brief incubation with LysoTracker Red at the end of the experiment was included (Fig. 2B). After 24 h of incubation, a small amount of cell-associated Aβ42 can be detected in N2a-mLRP4 cells.
Figure 2 Increased accumulation of intracellular Aβ42 within lysosomes in LRP1 minireceptor-expressing cells. A, increased Aβ42 accumulation in LRP1 minireceptor-expressing cells. N2a-mLRP4 and N2a-pcDNA3 cells were treated with 500 nM of FAM-Aβ42 at 37°C for 24, 48 and 72 h, and steady-state levels of intracellular Aβ42 were determined by flow cytometric analyses of pronase-treated cells as described in the Experimental Procedures. […] B, increased co-localization of intracellular Aβ42 and lysosomes in N2a-mLRP4 cells. N2a-pcDNA3 and N2a-mLRP4 cells were grown in glass chamber slides and treated with 500 nM of FAM-Aβ42 at 37°C for 24, 48 and 72 h. Lysosomes were labeled with LysoTracker 30 min before the end of each incubation. Cells were then fixed and analyzed by confocal microscopy.
For quantification of Aβ uptake experiments, stable N2a cells were plated into 12-well plates at 16,250 cells/cm^2 and grown overnight. Similar to imaging assays, cells were washed twice with PBS and incubated for the indicated periods of time with pre-warmed internalization media containing 500 nM FAM -Aβ42. After incubation, cells were washed twice with PBS and non-enzymatically detached as before in 500 µL cell dissociation solution. Cells were sequentially washed once with 1 mL of cold internalization media and twice with 2 mL cold PFN. Cells were finally resuspended in PFN-1% PFA and analyzed by FACS as before. For MEF-1 and MEF-2 experiments, 5,000 cells/cm^2 were plated in 12-well plates the day before. Cells were then washed twice with PBS and incubated 4 h with pre-warmed internalization media containing 500 nM FAM-Aβ42. After completion of the incubation time, cells were processed by FACS analysis as described above for N2a cells.
LRP1 knockdown was carried out in GT1-7 cells by siRNA transfection using Lipofectamine 2000 (Invitrogen, Carlslab, CA) and 120 nM of dsRNA duplex (Ambion, Austin, TX). Briefly, cells were plated in 6-well plates the day before transfection and grown overnight. Scrambled and LRP1 siRNA duplexes were generated according to the manufacturer's instruction and complexed with Lipofectamine 2000 as previously described. FAM-Aβ42 experiments were performed 72 h after siRNA transfection and analyzed as previously described for N2a cells. For clathrin heavy chain knockdown, shRNA lentiviruses were produced in the Viral Vectors Core facility at Washington University School of Medicine. In brief, 293T cells were transfected with pLKO.1-derived constructs together with the pHR'8.2ΔR and pCMV-VSV-G packaging systems as previously described. […]

MEF cells = experiment: FAM-Aβ42 internalization in wild-type (MEF1) and LRP1 knockout (MEF2) fibroblasts, FACS; assay type: cell-based, mouse; details: 500 nM FAM-Aβ42, 37°C, 4 h, n = 3, p<0.01
Description: To rule out cell type-specific effects and artifacts due to the expression of LRP1 minireceptor, we performed similar FAM-Aβ42 uptake experiments in GT1-7 neuronal cells with reduced endogenous LRP1 levels by siRNA knockdown (Fig. 3A), and in mouse embryonic fibroblasts from both wild-type (MEF1) and LRP1 knockout mice (MEF2) (Fig. 3B). GT1-7 cells were plated and treated as indicated in the Experimental Procedures and GT1-7 and MEF cells were incubated with 500 nM of FAM-Aβ42 at 37°C for 4 h. Steady-state levels of intracellular Aβ42 were determined by flow cytometric analysis of pronase-treated cells. […]
Figure 3 LRP1 mediates internalization and accumulation of Aβ42 in GT1-7 and MEF cells. […] After 72 h, cells were treated with 500 nM FAM-Aβ42 for 4 h and intracellular Aβ42 was determined by flow cytometric analyses of pronase-treated cells as described in the Experimental Procedures. […] Wild type (MEF1) and LRP1 knockout (MEF2) fibroblasts were treated with 500 nM FAM-Aβ42 for 4 h, and intracellular Aβ42 was determined by flow cytometric analyses. ** p<0.01, t-test. n = 3. C, cell lysates from GT1-7 and MEF cells treated as in A and B, analyzed by 7.5% SDS-PAGE, and Western blotted with anti-LRP1 antibodies.
For quantification of Aβ uptake experiments, stable N2a cells were plated into 12-well plates at 16,250 cells/cm^2 and grown overnight. […]

## FAM-Aβ42: FAM-Aβ42 peptide (23526) from Anaspec; amyloid-β 42 with carboxyfluorescein at the N-terminal region
N2a-mLRP4 cells; 24 h, FACS of pronase-treated cells
  levels of FAM-Aβ42 in N2a-mLRP4 cells compared to N2a-pcDNA3 cells: slight increase
N2a-mLRP4 cells; 48 h, FACS of pronase-treated cells
  levels of FAM-Aβ42 in N2a-mLRP4 cells compared to N2a-pcDNA3 cells: twice the levels
N2a-mLRP4 cells; 72 h, FACS of pronase-treated cells
  levels of FAM-Aβ42 in N2a-mLRP4 cells compared to N2a-pcDNA3 cells: twice the levels
N2a-mLRP4 cells; 500 nM, 48 h, FACS, pronase-treated and untreated cells
  cell-associated FAM-Aβ42 in N2a-mLRP4 cells compared to N2a-pcDNA3 cells: increases
N2a-mLRP4 cells; N2a-mLRP4, clathrin heavy chain shRNA lentivirus, 500 nM, 48 h, FACS of pronase-treated cells
  FAM-Aβ42 uptake in clathrin knocked down cells compared to control, empty lentivirus: twofold decrease
MEF cells
  internalization of FAM-Aβ42 in MEF2 (LRP1 knockout) compared to MEF1 (wild type): decrease
